Data taken from paper PMC7053711, “A G protein–coupled receptor mediates neuropeptide-induced oocyte maturation in the jellyfish Clytia” (PLoS Biology, 2020).
Peptide text beside a SMILES is read from it.

Experiments:
[1] = test system: wild-type (WT) isolated female gonads; test: Gonad spawning assay, wild-type isolated gonads; design: species or system Clytia hemisphaerica; settings: for Gonads spawning (number) / Percentage of spawning gonads: 4mM BrcAMP
Experimental: (§1) We performed a series of oocyte maturation and spawning assays, comparing the responses of wild-type and MIHR mutant isolated gonads and oocytes to different stimuli (Fig 4).
(§2) Sexually mature MIHR mutant medusae from colonies n5-13 and n5-23 and wild-type medusae were cultured on the same day–night cycle. Individual gonads were dissected in the evening after afternoon spawning. To test the light response, one group of each was transferred to 100 μL MFSW in wells of 96-well plastic plates, covered overnight, and re-exposed to white light the following day. To test responses to MIH and cAMP, other groups of dissected gonads were cultured overnight in constant light, then transferred to 96-well plastic plates for two hours. MIH was added to wells as an equal volume of 200 nM WPRPamide (GenScript) stock in MFSW was added to give a final concentration of 100 nM. Alternatively, a stock of 20 mM bromo adenosine 3′,5′cyclic monophosphate (Br-cAMP–Fluka; Sigma Aldrich) in distilled water was added to give a final concentration of 4 mM. Gonads were washed after 5 minutes incubation in Br-cAMP. Oocyte maturation was scored after 30 minutes as germinal vesicle breakdown (GVBD), i.e., visible dissolution of the oocyte nuclear membrane upon entry into M phase, which in all cases was followed by spawning about 1 hour later.
(§3) Supplementary file pbio.3000614.s013.xlsx: S3 Data Numerical data corresponding to Fig 4A and 4C. The first tab collects all the raw data from 3 independent gonad spawning assays. Information corresponding to the Fisher exact tests is also shown. […] The means and standard deviations were used to prepare the graph in Fig 4C. Information corresponding to the Fisher exact tests is also shown. (XLSX) Click here for additional data file.

[2] = test system: MIHR mutant (n5-23, n5-13) isolated female gonads; test: Gonad spawning assay, MIHR mutant isolated gonads; design: species or system Clytia hemisphaerica; settings: for Gonads spawning (number) / Percentage of spawning gonads: 4mM BrcAMP, MIH R K.O.
Experimental: as §1, §2, §3

[3] = test system: fully grown oocytes isolated from WT gonads; test: Oocyte maturation assay, wild-type isolated oocytes (GVBD); format: cell-based, Clytia hemisphaerica; settings: for Oocyte maturation (number) / Percentage of Oocytes maturing: 4mM BrcAMP, wild type
Text: (§4) Fig 4 Oocyte maturation failure in MIHR mutant medusae. Oocyte maturation assays performed using isolated gonads (A, B) or isolated oocytes (C) from MIHR mutant jellyfish compared to WT. In A and C, bar heights represent mean percentages of 3 independent experiments and error bars show standard deviations. Total gonad or oocyte numbers for each treatment are indicated in gray. (A) Spawning response of isolated gonads from WT and n5-23 female medusae. Three treatments were compared as indicated above each panel: Light: light stimulation after incubation in the dark; MIH: treatment of light-maintained gonads with 100 nM WPRPamide; cAMP: treatment of light-maintained gonads with 4 mM Br-cAMP. […] Full datasets from three independent experiments are available in S3 Data. (B) Light microscope images illustrating gonads from an equivalent experiment performed with n5-13 female MIHR mutant medusae 120 minutes after the indicated treatments. Scale bar: 500 μm. […] Full datasets from 3 independent experiments are available in S3 Data. Br-cAMP, bromoadenosine 3′,5′-cyclic monophosphate; cAMP, cyclic adenosine monophosphate; KO, knockout; MIH, maturation-inducing hormone; MIHR, MIH receptor; WT, wild-type.
(§5) Fully grown oocytes were isolated manually from dissected gonads of wild-type and MIHR KO mutant jellyfish prepared as above. Maturation assays were performed in wells of 96-well plates or small plastic petri dishes lined with 2% agarose in MFSW. Spontaneous maturation occurs at a low frequency in control oocytes. To test MIH-induced maturation, 10 μL WPRPamide from 1 μM solution in MFSW was added to a final concentration of 100 nM. In some experiments, Br-cAMP from a 20 mM stock in H2O was used at a final concentration of 4 mM. GVBD was scored at 30 minutes, every 5 minutes, depending on experiments.
as §3

[4] = test system: fully grown oocytes isolated from MIHR mutant (n5-23) gonads; test: Oocyte maturation assay, MIHR mutant isolated oocytes (GVBD); format: cell-based, Clytia hemisphaerica; settings: for Oocyte maturation (number) / Percentage of Oocytes maturing: 4mM BrcAMP, MIH R K.O.
Text: as §4, §5, §3

[5] = test system: Clytia MIHR; test: GPCR deorphanization assay, luminescence response to peptides at 1 μM (CHO-K1 cells, Gα-16, GFP-apoaequorin); format: cell-based, Clytia hemisphaerica; settings: peptide 1E-6M, normalised to Platynereis FLamide receptor + 1 μM AKYFL-NH2, n = 3
Text: We used a cell culture–based GPCR deorphanization assay to identify the MIH receptor from our candidate shortlist. cDNAs for each candidate were transfected into Chinese Hamster ovary K1 (CHO-K1) cells along with the promiscuous Gα protein Gα-16, and an aequorin-GFP luminescence reporter that measures Ca^2+ mobilization downstream of this heterologous Gα protein [27, 28]. We first screened the 16 candidate Clytia GPCRs against a mixture of 33 synthetic amidated peptides (including MIHs) predicted to be generated from previously identified putative Clytia neuropeptide precursors and one additional one identified from transcriptome data. Given our imperfect knowledge of pro-peptide processing in cnidarians, some of the synthetic peptides may not correspond to endogenous peptides. Only one of the 16 GPCRs was activated by this peptide mixture. This receptor responded well to all 4 synthetic Clytia MIH tetrapeptides, as well as to related Cladonema MIH peptides that can also activate Clytia oocyte maturation, but not to other Clytia peptide mixtures or poorly active MIH penta-/tripeptides. We termed this Clytia GPCR the Maturation Inducing Hormone Receptor (MIHR). The activity of individual peptides at 1 μM to stimulate the MIHR closely matched their in vivo ability to induce oocyte maturation (Fig 1B).
(§6) Cell culture GPCR ligand response assays were performed as described. Briefly, CHO-K1 cells were cultured in Ham’s F12 Nut Mix medium (Thermo Fisher Scientific) with 10% foetal bovine serum. Cells were seeded in 96-well plates at approximately 10,000 cells/well and transfected the following day with pcDNA3.1(+) plasmids encoding each of the 16 candidate Clytia GPCRs (S2 Text), the promiscuous Gα-16 protein [65], and a reporter construct GFP-apoaequorin [66] (60 ng each) using the transfection reagent TurboFect (Thermo Fisher Scientific). After 2 days of expression, the medium was removed and replaced with Hank’s balanced salt solution (HBSS) supplemented with 1.8 mM Ca2+, 10 mM glucose, and […] coelenterazine h (Promega, Madison, WI). After incubation at 37 °C for 2 hours, cells were tested by adding synthetic peptides (GenScript) in HBSS supplemented with 1.8 mM Ca2^+ and 10 mM glucose. A list of all synthetic peptides used is provided in S2 Table. Luminescence was recorded for 45 seconds in a plate reader (BioTek Synergy Mx or Synergy H4; BioTek, Winooski, VT). Data were integrated over the 45-second measurement period and recorded as technical triplicates in each case. Data were normalized using the response of Platynereis FLamide receptor to 1 μM AKYFL-NH2 [28]. Dose–response curves were obtained using concentrations between 0.01 nM and 100 μM for each peptide. Data for dose–response curves were recorded in triplicate for each concentration and the experiment was repeated independently 3 times. Dose–response curves were fitted with a four-parameter curve using Prism 6 (GraphPad, La Jolla, CA) and were normalized to the calculated upper plateau values (100% activation).
Supplementary file pbio.3000614.s011.xlsx: S1 Data Numerical data corresponding to Fig 1B. Raw luminescence values obtained in triplicate for each of the neuropeptide combinations tested against the MIHR in the deorphanization assay are provided. In the right-hand table, the raw luminescence values obtained in quadruple for the positive and negative controls are provided. In the lower table, means and standard errors of the mean of the luminescence values obtained for each neuropeptide combination and controls are also shown, as well as the values normalized to the positive control, which were used to prepare the graph shown in Fig 1B. MIHR, MIH receptor. (XLSX) Click here for additional data file.

[6] = test system: Clytia MIHR; test: Dose–response curves of Clytia MIHR, luminescence (CHO-K1 cells, Gα-16, GFP-apoaequorin); format: cell-based, Clytia hemisphaerica; design: key to Span (best-fit value) / Bottom (best-fit value): % activation, normalized to fitted upper plateau (100%); settings: for EC50: four-parameter fit, variable slope, triplicate; for HillSlope / LogEC50: best-fit value; for Span / Top / Bottom: best-fit value (luminescence); for EC50 / relative activity on MIHR: three independent dose–response experiments
Experimental: The Clytia MIH amidated peptides are produced from two precursor genes Che-pp4 (generating multiple copies of WPRAamide, WPRYamide, and WPRPamide) and Che-pp1 (multiple copies of WPRPamide and RPRGamide).
as §6
Supplementary file pbio.3000614.s012.xlsx: S2 Data Numerical data corresponding to Fig 1C. The first three tabs show statistical values obtained using Prism 6 software (GraphPad, La Jolla, CA) from the raw luminescence values for 3 independent dose–response experiments. The raw luminescence values are shown, as well as the values normalized with respect to the maximum. […] MIH, maturation-inducing hormone. (XLSX) Click here for additional data file.

[7] = wild type, replicate 1, total 12
[8] = wild type, replicate 2, total 10
[9] = wild type, replicate 3, total 10
[10] = BrcAMP, pooled n=32, Fisher exact test vs MIHR KO not significant at p < .01
[11] = BrcAMP, pooled n=29, Fisher exact test vs WT not significant at p < .01
[12] = BrcAMP, pooled n=59, Fisher exact test vs MIHR KO 0.215946, not significant at p < .01
[13] = BrcAMP, pooled n=92, Fisher exact test vs WT 0.215946, not significant at p < .01
[14] = log(agonist) vs. response, variable slope (four parameters), fit of third dataset

## Nc1ncnc2c1nc(Br)n2[C@@H]1O[C@@H]2COP(=O)(O)O[C@H]2[C@H]1O [BrcAMP]
[1]; [7]
  Gonads spawning (number): 12
  Percentage of spawning gonads: 100
[1]; [8]
  Gonads spawning (number): 10
  Percentage of spawning gonads: 100
[1]; [9]
  Gonads spawning (number): 10
  Percentage of spawning gonads: 100
[1]; [10]
  Non-spawning gonads, WT NO: 0
  Spawning gonads, WT YES: 32
[1]; BrcAMP, wild type, summary of 3 replicates
  Percentage of spawning gonads (summary): 100
[2]; replicate 1, total 4
  Gonads spawning (number): 4
  Percentage of spawning gonads: 100
[2]; replicate 2, total 18
  Gonads spawning (number): 18
  Percentage of spawning gonads: 100
[2]; replicate 3, total 7
  Gonads spawning (number): 7
  Percentage of spawning gonads: 100
[2]; BrcAMP, MIHR K.O., summary of 3 replicates
  Percentage of spawning gonads (summary): 100
[2]; [11]
  Non-spawning gonads, MIHR KO NO: 0
  Spawning gonads, MIHR KO YES: 29
[3]; replicate 1, total 15
  Oocyte maturation (number): 15
  Percentage of Oocytes maturing: 100.00
[3]; replicate 2, total 26
  Oocyte maturation (number): 21
  Percentage of Oocytes maturing: 80.77
[3]; replicate 3, total 18.00
  Oocyte maturation (number): 13
  Percentage of Oocytes maturing: 72.22
[3]; BrcAMP, WT, pooled n=59
  % oocytes maturing, pooled: 83.0508%
[3]; [12]
  Maturing oocytes, WT YES: 49
  Non-maturing oocytes, WT NO: 10
[4]; replicate 1, total 31
  Oocyte maturation (number): 30
  Percentage of Oocytes maturing: 96.77
[4]; replicate 2, total 14
  Oocyte maturation (number): 12
  Percentage of Oocytes maturing: 85.71
[4]; replicate 3, total 47.00
  Oocyte maturation (number): 41
  Percentage of Oocytes maturing: 87.23
[4]; BrcAMP, MIHR KO, pooled n=92
  % oocytes maturing, pooled: 90.2174%
[4]; [13]
  Maturing oocytes, MIHR KO YES: 83
  Non-maturing oocytes, MIHR KO NO: 9

## N=C(N)NCCC[C@H](NC(=O)[C@@H]1CCCN1C(=O)[C@@H](N)CCCNC(=N)N)C(=O)NCC(N)=O [RPRGa] (H-RPRG-NH2; N-terminus assumed)
[5]
  Normalised response (to positive control), mean: 0.2052
[6]; dataset/experiment 1
  EC50: 724 nM
[6]; dataset/experiment 2
  EC50: 2210 nM
[6]; first dataset
  HillSlope: 1.15
  LogEC50: -6.14
  Span: 80378
  Top: 82566
[6]; [14]
  HillSlope (best-fit value): 1.139
  LogEC50 (best-fit value): -5.859
  Span (best-fit value): 89.45
[6]; second dataset
  HillSlope: 0.9524
  LogEC50: -5.656
  Span: 33216
  Top: 36059
[6]
  EC50 / relative activity on MIHR: the lowest

## N=C(N)NCCC[C@H](NC(=O)[C@@H]1CCCN1C(=O)[C@@H](N)CCCNC(=N)N)C(=O)N[C@@H](Cc1ccc(O)cc1)C(N)=O [RPRYa] (H-RPRY-NH2; N-terminus assumed)
[5]
  Normalised response (to positive control), mean: 0.39
[6]; dataset/experiment 1
  EC50: 57.7 nM
[6]; dataset/experiment 2
  EC50: 164 nM
[6]; first dataset
  HillSlope: 1.301
  LogEC50: -7.239
  Bottom: 997.1
  Span: 60319
  Top: 61316
[6]; [14]
  Bottom (best-fit value): 5.512
  HillSlope (best-fit value): 1.159
  LogEC50 (best-fit value): -6.887
  Span (best-fit value): 94.5
[6]; second dataset
  HillSlope: 1.165
  LogEC50: -6.785
  Bottom: 2011
  Span: 27358
  Top: 29369
[6]
  EC50 / relative activity on MIHR: highest activity

## AWPRP-NH2 [AWPRPa]
[5]
  Normalised response (to positive control), mean: 0.02128

## RPRP-NH2 [RPRPa, Cladonema MIH tetrapeptide, RPRP-NH2]
[5]
  Normalised response (to positive control), mean: 0.33
